{"source": "paper PMC9529548", "about": "(Computational and Structural Biotechnology Journal, 2022)", "system": "T1, E. coli transhydrogenase (PntA (α) and PntB (β))", "T1 construct": "full-length wild-type holoenzyme from E. coli membranes, DDM-solubilised, Ni-NTA (tag not described) and SEC; dimer of two identical protomers (alpha2beta2)", "T1 sequence (P0AB67 whole entry)": "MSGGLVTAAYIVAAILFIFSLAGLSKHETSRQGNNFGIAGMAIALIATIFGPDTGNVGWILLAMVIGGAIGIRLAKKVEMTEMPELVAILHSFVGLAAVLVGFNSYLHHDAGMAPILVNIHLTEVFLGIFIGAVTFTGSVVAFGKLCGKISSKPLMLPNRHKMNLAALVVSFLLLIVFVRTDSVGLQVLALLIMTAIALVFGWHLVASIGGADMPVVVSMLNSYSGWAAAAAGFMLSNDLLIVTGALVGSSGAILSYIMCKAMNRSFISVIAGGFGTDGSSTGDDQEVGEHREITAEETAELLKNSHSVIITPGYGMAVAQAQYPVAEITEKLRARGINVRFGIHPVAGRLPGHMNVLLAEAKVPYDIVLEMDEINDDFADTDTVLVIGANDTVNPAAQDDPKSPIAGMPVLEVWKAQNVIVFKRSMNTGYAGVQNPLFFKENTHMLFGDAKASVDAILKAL", "T1 sequence (P07001 whole entry, further chain)": "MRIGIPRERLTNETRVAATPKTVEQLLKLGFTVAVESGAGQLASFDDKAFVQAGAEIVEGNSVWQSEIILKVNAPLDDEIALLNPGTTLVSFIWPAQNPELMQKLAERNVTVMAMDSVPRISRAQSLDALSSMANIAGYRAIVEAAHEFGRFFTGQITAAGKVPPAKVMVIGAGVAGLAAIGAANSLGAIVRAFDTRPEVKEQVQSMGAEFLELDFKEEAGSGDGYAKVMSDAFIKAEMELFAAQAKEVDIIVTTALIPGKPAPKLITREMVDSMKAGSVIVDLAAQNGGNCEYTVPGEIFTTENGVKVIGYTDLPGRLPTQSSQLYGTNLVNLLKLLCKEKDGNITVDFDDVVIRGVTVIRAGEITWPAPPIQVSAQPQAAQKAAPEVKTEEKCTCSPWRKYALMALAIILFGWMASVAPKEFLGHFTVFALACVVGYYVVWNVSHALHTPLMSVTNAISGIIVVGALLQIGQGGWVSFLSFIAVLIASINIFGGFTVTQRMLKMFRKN", "test": "spectrophotometric reduction of APAD+ by NADPH, […] nm", "type": "biochemical, Escherichia coli", "conditions": "100 uM APAD+, 100 uM NADPH, 25 mM HEPES pH 7.5, 50 mM KCl, asolectin, 0.1% DDM, 37 °C; reverse reaction"}
{"compound": "CC(=O)c1ccc[n+]([C@@H]2O[C@H](COP(=O)(O)OP(=O)(O)OC[C@H]3O[C@@H](n4cnc5c(N)ncnc54)[C@H](O)[C@@H]3O)[C@@H](O)[C@H]2O)c1", "note": "[APAD^+]", "values": [{"measurement": "spectrophotometric reduction of APAD+ by NADPH, 375 nm", "result": "reverse transhydrogenase activity of the protein in DDM was measured using the reduction of APAD^+"}]}
